Data published in the supplement of paper PMC4862054.

Legend:
Experiment in all cases: drug sensitivity score (DSS), CellTox Green (DSS (AUC-based score)); higher = stronger drug effect (viability inhibition or cytotoxicity); extreme values may be limits of the assay
Conditions in all cases: incubation time: 72 h
HCC1143 = tested on: HCC1143
Summary of the method: (§1)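 Plates with 384 wells held compound at 5 concentrations in 10-fold steps over a 10,000-fold range specific to each compound. Breast cancer cell lines were added in 20 µl suspension and incubated 72 h, then read for CellTox Green and CellTiter-Glo signals, with each plate normalised to 0.1 % DMSO and a positive kill control. The drug sensitivity score is based on the area under the fitted dose-response curve.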

HCC1599 = tested on: HCC1599
Summary of the method: as §1

BT-549 = tested on: BT-549
Summary of the method: as §1

MDA-MB-468 = tested on: MDA-MB-468
Summary of the method: as §1

HDQ-P1 = tested on: HDQ-P1
Summary of the method: as §1

MDA-MB-231 = tested on: MDA-MB-231
Summary of the method: as §1

MDA-MB-436 = tested on: MDA-MB-436
Summary of the method: as §1

Hs578T = tested on: Hs578T
Summary of the method: as §1

HCC1937 = tested on: HCC1937
Summary of the method: as §1

CAL-120 = tested on: CAL-120
Summary of the method: as §1

CAL-85-1 = tested on: CAL-85-1
Summary of the method: as §1

CAL-148 = tested on: CAL-148
Summary of the method: as §1

BT-474 = tested on: BT-474
Summary of the method: as §1

MFM-223 = tested on: MFM-223
Summary of the method: as §1

DU-4475 = tested on: DU-4475
Summary of the method: as §1

MDA-MB-453 = tested on: MDA-MB-453
Summary of the method: as §1

CAL-51 = tested on: CAL-51
Summary of the method: as §1

MCF-10A = tested on: MCF-10A
Summary of the method: as §1

SMILES	drug sensitivity score (HCC1143)	drug sensitivity score (HCC1599)	drug sensitivity score (BT-549)	drug sensitivity score (MDA-MB-468)	drug sensitivity score (HDQ-P1)	drug sensitivity score (MDA-MB-231)	drug sensitivity score (MDA-MB-436)	drug sensitivity score (Hs578T)	drug sensitivity score (HCC1937)	drug sensitivity score (CAL-120)	drug sensitivity score (CAL-85-1)	drug sensitivity score (CAL-148)	drug sensitivity score (BT-474)	drug sensitivity score (MFM-223)	drug sensitivity score (DU-4475)	drug sensitivity score (MDA-MB-453)	drug sensitivity score (CAL-51)	drug sensitivity score (MCF-10A)
Cn1nnc2c(C(N)=O)ncn2c1=O [Temozolomide]	0	0	0	0	0	0	0	0	0	0	0	0	0	0	0	0	0	0
CC[C@@H]1C(=O)N(C)c2cnc(Nc3ccc(C(=O)N[C@H]4CC[C@H](N5CCN(CC6CC6)CC5)CC4)cc3OC)nc2N1C(C)C [Volasertib]	14.8	0	3.98	0	7.16	3.33	0	10.7	17.3	0	8.26	0	0	14.5	0	0	14.5	19.4
COc1cc2c(N3CCN(C(=O)Nc4ccc(OC(C)C)cc4)CC3)ncnc2cc1OCCCN1CCCCC1 [Tandutinib]	0	0	0	0	0	0	0	0	0	0	0	0	0	0	0	0	0	0
CCCc1cc(C)[nH]c(=O)c1CNC(=O)c1cc(-c2ccnc(N3CCN(C)CC3)c2)cc2c1cnn2C(C)C [GSK343]	0	1.18	0	0	0	7.22	0	4.43	0	0	2.18	0	5.28	7.62	0	6.47	0	0
C[C@@H]1C[C@H]2[C@@H]3CCC4=CC(=O)C=C[C@]4(C)[C@@]3(F)[C@@H](O)C[C@]2(C)[C@@]1(O)C(=O)CO [Dexamethasone]	0	0	0	0	0	0	0	1.94	0	0	0	0	0	0	0	0	0	3.19
CC(C)NC[C@@H](C(=O)N1CCN(c2ncnc3c2[C@H](C)C[C@H]3O)CC1)c1ccc(Cl)cc1 [GDC-0068]	0	0	0	3.49	0.469	0	0	0	0	0	0	14.1	0.545	1.29	0	0	2.24	0
CN1CCc2c(c3ccccc3n2Cc2ccc(C(=O)NO)cc2)C1 [Tubastatin A]	10	0	0	1.42	0	2.06	0	0	0	0	0	0	0.156	0	0	0	7.48	0
NC1(c2ccc(-c3nc4ccn5c(=O)[nH]nc5c4cc3-c3ccccc3)cc2)CCC1 [MK-2206]	0	0	0	0	0	0	0	0	0	0	0	3.64	0	0	0	0	0	0
CC/C(=C(\c1ccccc1)c1ccc(OCCN(C)C)cc1)c1ccccc1 [Tamoxifen]	0	0	0	3.42	0	3.47	1.29	0	17.1	0	1.12	0	4.12	0	0	1.55	0	0
N[C@@H](Cc1ccc(N(CCCl)CCCl)cc1)C(=O)O [Melphalan]	7.18	11.8	13.4	19.7	18.4	23.9	8.42	12.4	15.4	9.72	18.1	18.5	18.1	16.5	11.5	16.9	21.7	19.3
COc1cc2c(Oc3ccc(NC(=O)C4(C(=O)Nc5ccc(F)cc5)CC4)cc3F)ccnc2cc1OCCCN1CCOCC1 [Foretinib]	1.04	0	0	3.1	0	10.4	0	2.65	0	0	0	1.71	0	0	0	0	4.29	0
Cc1c(C(=O)Nc2ccc(N3C[C@@H](C)O[C@@H](C)C3)nc2)cccc1-c1ccc(OC(F)(F)F)cc1 [Erismodegib]	0	0	0	0	0	0.0859	0	0	0	0	0	2.18	0	0	0	0	0	0
CCc1cnn2c(NCc3ccc[n+]([O-])c3)cc(N3CCCC[C@H]3CCO)nc12 [Dinaciclib]	0	5.57	0	19.6	11.4	25.4	0	12.4	0	1.4	18.4	9.14	3.72	13.1	0	0	8.81	6.99
CO[C@H](C(=O)[C@@H](O)[C@@H](C)O)[C@@H]1Cc2cc3cc(O[C@H]4C[C@@H](O[C@@H]5C[C@@H](O)[C@H](O)[C@@H](C)O5)[C@H](O)[C@@H](C)O4)c(C)c(O)c3c(O)c2C(=O)[C@H]1O[C@H]1C[C@@H](O[C@@H]2C[C@@H](O)[C@@H](O[C@@H]3C[C@](C)(O)[C@H](O)[C@@H](C)O3)[C@@H](C)O2)[C@H](O)[C@@H](C)O1 [Plicamycin]	0	0	0	9.57	0	0	0	1.28	0	0	1.48	0	0	0	0	1.33	7.69	6.07
